# According to patent publication US20230399312A1, “SUBSTITUTED PYRIMIDINES AND METHODS OF USE” (THERAVANCE BIOPHARMA R&D IP, LLC, priority 2020, published 2023):
# Tests used:
# [1] = target: T1, recombinant human ALK5 (TGF-βR1) protein (Homo sapiens, UniProt P36897); assay: Biochemical ALK5 (TGF-βR1) assay to measure pKi (LANCE Ultra ULight kinase assay); conditions: apparent pKi, converted from pIC50 by Cheng-Prusoff
# T1 construct: purchased Life Technologies PR9075A
# T1 sequence (P36897 34-503): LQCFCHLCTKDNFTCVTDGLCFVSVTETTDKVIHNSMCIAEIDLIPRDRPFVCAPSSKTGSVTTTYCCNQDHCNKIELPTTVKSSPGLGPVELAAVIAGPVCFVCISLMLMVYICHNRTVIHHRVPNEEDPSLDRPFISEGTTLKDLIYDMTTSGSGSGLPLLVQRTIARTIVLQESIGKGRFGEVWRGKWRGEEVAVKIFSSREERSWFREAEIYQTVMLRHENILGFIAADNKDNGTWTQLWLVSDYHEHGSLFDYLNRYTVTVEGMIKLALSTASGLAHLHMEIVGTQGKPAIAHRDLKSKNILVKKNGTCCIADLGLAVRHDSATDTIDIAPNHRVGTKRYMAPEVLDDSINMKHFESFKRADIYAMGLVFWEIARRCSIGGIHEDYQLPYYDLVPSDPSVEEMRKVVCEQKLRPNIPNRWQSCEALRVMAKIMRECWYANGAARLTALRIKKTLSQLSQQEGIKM
# In short: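 Enzyme preincubated with compound for 60 min at room temperature, then reacted with ATP (125 μM as 5× stock) for 60 min at 37 °C. Stopped with EDTA plus Eu-anti-phospho-Topoisomerase 2-alpha (Thr1342) antibody and read by TR-FRET at 665 nm. pIC50 from a 4-parameter fit, converted to pKi by Cheng-Prusoff.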
# [2] = system: TGF-β-stimulated SMAD3 phosphorylation in BEAS-2B cells; assay: Cellular ALK5 potency assay, inhibition of TGF-β stimulated pSMAD3 formation in BEAS-2B cells; assay type: cell-based; conditions: Homo sapiens, pSMAD3, TGF-β 10 ng/mL, read-out: BEAS2B pIC50 (converted)
# In short: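 Read-out is AlphaLISA detection of phospho-SMAD3 in lysates of BEAS-2B human lung epithelial cells. Cells are exposed to compound for 1 hour, then to 10 ng/mL TGF-β (final) for 30 minutes. Values are pIC50 from concentration–response curves.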
SMILES,Ki [1] [nM],IC50 [2] [nM]
"Cc1cccc(-c2nccc(Nc3ccnc(Nc4cc(C(=O)N5CCNCC5)cs4)n3)n2)n1 [Compound 389, [5-[[4-[[2-(6-methyl-2-pyridyl)pyrimidin-4-yl]amino]pyrimidin-2-yl]amino]-3-thienyl]-piperazin-1-yl-methanone]",0.0398 to 0.316,25.1 to 158
"Cc1cccc(-c2nccc(Nc3ccnc(Nc4cnn(CCC5CCNCC5)c4)n3)n2)n1 [Compound 390, N4-[2-(6-methyl-2-pyridyl)pyrimidin-4-yl]-N2-[1-[2-(4-piperidyl)ethyl]pyrazol-4-yl]pyrimidine-2,4-diamine]",0.0398 to 0.316,200 to 1260
"Cc1cccc(-c2nccc(Nc3ccnc(Nc4nc(CN5C[C@@H](C)N[C@@H](C)C5)cs4)n3)n2)n1 [Compound 391, N4-[2-(6-methyl-2-pyridyl)pyrimidin-4-yl]-N2-[4-[[rac-(3R,5S)-3,5-dimethylpiperazin-1-yl]methyl]thiazol-2-yl]pyrimidine-2,4-diamine]",0.398 to 3.16,25.1 to 158
"Cc1cccc(-c2nccc(Nc3ccnc(Nc4ccc(N5CCC(N(C)CC(C)C)CC5)cc4)n3)n2)n1 [Compound 393, N2-[4-[4-[isobutyl(methyl)amino]-1-piperidyl]phenyl]-N4-[2-(6-methyl-2-pyridyl)pyrimidin-4-yl]pyrimidine-2,4-diamine]",0.0398 to 0.316,25.1 to 158
"Cc1cccc(-c2nccc(Nc3ccnc(Nc4cccc(C(=O)N5CCN(C)CC5)c4)n3)n2)n1 [Compound 396, (4-methylpiperazin-1-yl)-[3-[[4-[[2-(6-methyl-2-pyridyl)pyrimidin-4-yl]amino]pyrimidin-2-yl]amino]phenyl]methanone]",0.398 to 3.16,25.1 to 158
"Cc1cccc(-c2nccc(Nc3ccnc(Nc4ccc(N5CCC(N6CCOCC6)CC5)cc4)n3)n2)n1 [Compound 397, N4-[2-(6-methyl-2-pyridyl)pyrimidin-4-yl]-N2-[4-(4-morpholino-1-piperidyl)phenyl]pyrimidine-2,4-diamine]",0.0398 to 0.316,25.1 to 158
"Fc1ccc(Cl)cc1-c1nccc(Nc2ccnc(Nc3ccc(N4CCNCC4)cc3)n2)n1 [Compound 398, N4-[2-(5-chloro-2-fluoro-phenyl)pyrimidin-4-yl]-N2-(4-piperazin-1-ylphenyl)pyrimidine-2,4-diamine]",0.0398 to 0.316,25.1 to 158
"Fc1ccccc1-c1nccc(Nc2ccnc(Nc3ccc(N4CCOCC4)cc3)n2)n1 [Compound 399, N4-[2-(2-fluorophenyl)pyrimidin-4-yl]-N2-(4-morpholinophenyl)pyrimidine-2,4-diamine]",3.98 to 31.6,25.1 to 158
"Cc1cccc(-c2nccc(Nc3ccnc(Nc4nc(C(=O)N[C@@H]5CCNC5)cs4)n3)n2)n1 [Compound 404, 2-[[4-[[2-(6-methyl-2-pyridyl)pyrimidin-4-yl]amino]pyrimidin-2-yl]amino]-N-[(3R)-pyrrolidin-3-yl]thiazole-4-carboxamide]",≤ 0.0316,25.1 to 158
"Cc1cccc(-c2nccc(Nc3ccnc(Nc4ccc(S(=O)(=O)N5CCOCC5)cc4)n3)n2)n1 [Compound 407, N4-[2-(6-methyl-2-pyridyl)pyrimidin-4-yl]-N2-(4-morpholinosulfonylphenyl) pyrimidine-2,4-diamine]",0.0398 to 0.316,25.1 to 158
"Fc1ccc(Cl)cc1-c1nccc(Nc2ccnc(Nc3ccc(NCCN4CCOCC4)cc3)n2)n1 [Compound 408, N4-[2-(5-chloro-2-fluoro-phenyl)pyrimidin-4-yl]-N2-[4-(2-morpholinoethylamino)phenyl] pyrimidine-2,4-diamine]",0.398 to 3.16,25.1 to 158

# Now from value to compound, other results behind:
Ki [1] [nM],SMILES,IC50 [2] [nM]
0.398 to 3.16,"Cc1cccc(-c2nccc(Nc3ccnc(Nc4ccc(CO)cc4)n3)n2)n1 [Compound 388, [4-[[4-[[2-(6-methyl-2-pyridyl)pyrimidin-4-yl]amino]pyrimidin-2-yl]amino]phenyl]methanol]",≤ 20
0.0398 to 0.316,"Cc1cccc(-c2nccc(Nc3ccnc(Nc4ccc(CN5CC(OCCO)C5)cc4)n3)n2)n1 [Compound 392, 2-[1-[[4-[[4-[[2-(6-methyl-2-pyridyl)pyrimidin-4-yl]amino]pyrimidin-2-yl]amino]phenyl]methyl]azetidin-3-yl]oxyethanol]",25.1 to 158
0.0398 to 0.316,"Cc1cccc(-c2nccc(Nc3ccnc(Nc4ccc(N5CCC(N(C)C)CC5)cc4)n3)n2)n1 [Compound 394, N2-[4-[4-(dimethylamino)-1-piperidyl]phenyl]-N4-[2-(6-methyl-2-pyridyl)pyrimidin-4-yl]pyrimidine-2,4-diamine]",200 to 1260
0.0398 to 0.316,"Cc1cccc(-c2nccc(Nc3ccnc(Nc4ccc(CN5CC6CCC(C5)O6)cc4)n3)n2)n1 [Compound 395, N4-[2-(6-methyl-2-pyridyl)pyrimidin-4-yl]-N2-[4-(8-oxa-3-azabicyclo[3.2.1]octan-3-ylmethyl)phenyl]pyrimidine-2,4-diamine]",25.1 to 158
0.0398 to 0.316,"Cc1cccc(-c2nccc(Nc3ccnc(Nc4ccc(CN5CCC[C@@H](C(=O)OCC6CNC6)C5)cc4)n3)n2)n1 [Compound 400, azetidin-3-ylmethyl (R)-1-(4-((4-((2-(6-methylpyridin-2-yl)pyrimidin-4-yl)amino)pyrimidin-2-yl)amino)benzyl)piperidine-3-carboxylate]",25.1 to 158
0.398 to 3.16,"COCCc1ccc(Nc2nccc(Nc3ccnc(-c4cccc(C)n4)n3)n2)cc1 [Compound 401, N2-[4-(2-methoxyethyl)phenyl]-N4-[2-(6-methyl-2-pyridyl)pyrimidin-4-yl]pyrimidine-2,4-diamine]",25.1 to 158
0.398 to 3.16,"Cc1cccc(-c2nccc(Nc3ccnc(Nc4ccc(N5CCNCC5CC(=O)OCC5CNC5)cc4)n3)n2)n1 (centres unmarked) [Compound 402, azetidin-3-ylmethyl 2-[1-[4-[[4-[[2-(6-methyl-2-pyridyl)pyrimidin-4-yl]amino]pyrimidin-2-yl]amino]phenyl]piperazin-2-yl]acetate]",200 to 1260
0.0398 to 0.316,"Cc1cccc(-c2nccc(Nc3ccnc(Nc4ccc(N5CCN[C@@H](CO)C5)cc4)n3)n2)n1 [Compound 403, (R)-(4-(4-((4-((2-(6-methylpyridin-2-yl)pyrimidin-4-yl)amino)pyrimidin-2-yl)amino)phenyl)piperazin-2-yl)methanol]",25.1 to 158
≤ 0.0316,"Cc1cccc(-c2nccc(Nc3ccnc(Nc4ccc(CN5CCC(O)CC5)cc4)n3)n2)n1 [Compound 405, 1-[[4-[[4-[[2-(6-methyl-2-pyridyl)pyrimidin-4-yl]amino]pyrimidin-2-yl]amino]phenyl]methyl] piperidin-4-ol]",25.1 to 158
0.398 to 3.16,"Cc1cccc(-c2nccc(Nc3ccnc(Nc4ccc(C(=O)O)cc4)n3)n2)n1 [Compound 406, 4-[[4-[[2-(6-methyl-2-pyridyl)pyrimidin-4-yl]amino]pyrimidin-2-yl]amino]benzoic acid]",200 to 1260
0.0398 to 0.316,"Cc1cccc(-c2nccc(Nc3ccnc(Nc4ccc(CN5[C@@H](C)CNC[C@@H]5C)cc4)n3)n2)n1 [Compound 409, N2-[4-[[(2S,6S)-2,6-dimethylpiperazin-1-yl]methyl]phenyl]-N4-[2-(6-methyl-2-pyridyl)pyrimidin-4-yl]pyrimidine-2,4-diamine]",25.1 to 158
